Source: US9604894B2, “Compounds from antrodia camphorate and their use in treatment of diabetes mellitus” (National Dong Hwa University, priority 2014, dated 2017)
“Also recorded” adds a separate entry of the source.

Tests used:
C57 BL/6 mice = assay: Oral glucose tolerance test in S961-induced insulin resistance mice; assay type: in vivo, mouse; conditions: D-glucose 2 g/kg; for hypoglycemic efficacy, OGTT blood glucose AUC: S961 50 nmol/kg Bwt, enantiomer 50 mg/kg Bwt p.o., FIG. 7(B)
Experimental: (§1) Animal experiments were approved by the National Dong-Hwa University Animal Ethics Committee and were used according to the “Guide for the Care and Use of Laboratory Animals” of National Dong-Hwa University. C57BL/6 mouse and Imprinting Control Region (ICR) mouse were obtained National Laboratory Animal Center (Taipei, Taiwan) and kept at controlled environmental conditions with room temperature (22±2° C.) and humidity (50±10%). The 12 h light (0600 am-1800 pm) and 12 h dark cycle was maintained throughout the study. Mice had free access to food and water and maintained on a standard laboratory diet (carbohydrates; 60%, proteins; 28%, lipids; 12%, vitamins; 3%).
(§2) Mice were employed to this test after fasting 12 h. Mice were treated with D-glucose by oral gavage (2 g/kg, p.o.). At approximately 0, 30, 60, 90, and 120 min, blood was sampled by venipuncture from the tail vein for the determining blood glucose. Blood glucose was immediately determined by the glucose oxidase method using glucose analyzer (Accu-Chek, Roche).
8 weeks old male C57 BL/6 mice were employed to this test after fasting 12 h. To investigate the effect of natural compounds on the 5961 (insulin receptor antagonist, Novo-Nordisk, Denmark) induced hyperglycemia, mice was intraperitoneally injected (i.p.) S961 (50 nmol/kg Bwt) at 15 min prior to oral gavaged (p.o.) with antroquinonol (dissolved in PEG and EtoH, 50 mg/kg Bwt) and D-glucose (2 g/kg Bwt). At approximately 0, 30, 60, 90, and 120 min, blood was sampled by venipuncture from the tail vein for OGTT test.

DIO ICR mice [1] = assay: Long term glucose tolerance (OGTT) in diet-induced obesity (DIO) ICR mice; assay type: in vivo, mouse; conditions: antroquinonol 25 mg/kg Bwt versus Sitagliptin 10 mg/kg Bwt, q.o.d. for 4 weeks, FIG. 9
Experimental: as §1, §2
(§3) 8 weeks old ICR male mice were induced with high fat die and 60% fructose water for 10 weeks. […] Blood glucose was immediately determined by the glucose oxidase method using glucose analyzer (Accu-Chek, Roche), when blood sugar was sustained at higher level than 200 mg/dl after 120 min oral glucose that defined high blood sugar. […]

[2] = molecular target: T1, Dipeptidyl peptidase-4 (DPP4) (Homo sapiens, UniProt P27487); assay: DPP4 enzyme activity (DPPIV/CD26 Assay Kit); assay type: biochemical; conditions: 100 μM, 30 min at RT; FIG. 2
T1 construct: purchased Enzo BML-AK498
Experimental: Dipeptidyl peptidase-4 (DPP4), also known as adenosine deaminase complexing protein 2 or CD26 (cluster of differentiation 26), is […]. DPP4 enzyme activity was measured by a DPPIV/CD26 Assay Kit (BML-AK498, Enzo, N.Y., USA). This assay is based on the cleavage of the p-nitroaniline (pNA) from the chromogenic substrate (H-Gly-Pro-pNA) to increase the absorbance at 405 nm. Firstly 50 μL of assay buffer (50 mM Glycine, pH 8.7, 1 mM EDTA) per will was added into the 96-well clear microplate, and then 20 μL of DPP4 enzyme (13 μU/μL), 20 μL of tested inhibitors, 100 μM of antroquinonol or known clinical drug sitagliptin, and finally 10 μL of pNA substrate were added to each well sequentially. After an incubation of reaction mixture at room temperature (RT) for 30 min, the absorbance of each sample was read at 405 nm by the ELISA plate reader (Thermo Labsystems, Opsys MR, Thermo fisher scientific).

[3] = system: AKT Thr308 phosphorylation; assay: AKT Thr308 phosphorylation, Western blot in differentiated C2C12 cells; assay type: cell-based, mouse; conditions: C2C12, 37° C., 30 min; insulin 100 nM, metformin 16 mM, antroquinonol 25 μM; FIG. 3(A)
Experimental: (§4) FIG. 3(A) provides the results of the AKT Thr308 phosphorylation induced by insulin, metformin (Met) and antroquinonol (Ant); wherein the differentiated C2C12 cells were incubated with 100 nM of insulin, 16 mM of metformin (Met), or 25 μM of antroquinonol (Ant) at 37° C. for 30 min, and then the cell lysates were separated by SDS-PAGE and blotted for phospho-AKT Thr308; wherein the data were expressed as means with standard errors of mean (mean±SEM), and different letters represent the significant differences (p<0.05) among the various treatments.
Mouse muscle myoblast cells (C2C12) were obtained from the Food Industry Research and Development Institute (FIRDI, Hsinchu, Taiwan). The cells were grown and maintained in Dulbecco's Modified Eagle's Medium containing high level of glucose (DMEM-high glucose; GIBCO, Carlsbad, Calif., USA) supplemented with 10% fetal bovine serum (FBS, GIBCO) and 1% penicillin streptomycin (GIBCO) in a cell culture incubator with 5% CO2 at 37° C. Prior to experiment, the cells were seeded and cultured at a density of 8×10^3 cells per well in 96-well plates or 2.5×10^5 cells per well in 6-well plates. […]
(§5) After treatments, the cells were collected and washed twice in cold KRH buffer (containing 50 mM HEPES, 137 mM NaCl, 4.8 mM KCl, 1.85 mM CaCl2, 1.3 mM MgSO4), and then lysed in ice-cold RIPA buffer (containing 50 mM Tris-HCl, pH 8.0, 150 mM NaCl, 5 mM NaF, 1% NP40, 1 mM sodium orthovanadate, 0.5% sodium deoxycholate, 0.1% sodium dodecyl sulphate (SDS), protease inhibitors, and phosphatase inhibitors (DE-68305, Roche, Mannheim, Germany)) and incubated at 4° C. for 60 min. After centrifugation of the cells at 12,000×g at 4° C. for 30 min, the supernatant was kept and quantified by Bradford protein assay (Bio-Rad, Hercules, Calif., USA). […] The signals were monitored using Western Lightning™ Plus-ECL (Perkin Elmer Life Sciences) and the PVDF membrane was exposed to Luminescent image analyzer (LAS)-3000 (Fujifilm, Minato, Tokyo, Japan). The acquired data were analyzed and compared the difference among various treatments. […]

[4] = system: AMPK Thr172 phosphorylation; assay: AMPK Thr172 phosphorylation, Western blot in differentiated C2C12 cells; assay type: cell-based, mouse; conditions: C2C12, 37° C., 30 min; insulin 100 nM, metformin 16 mM, antroquinonol 25 μM; FIG. 3(B)
Experimental: as §4, with “3(B)” for “3(A)”, “AMPK Thr172” for “the AKT Thr308”, “phospho-AMPK Thr172;” for “phospho-AKT Thr308;”
Mouse muscle myoblast cells (C2C12) were obtained from the Food Industry Research and Development Institute (FIRDI, Hsinchu, Taiwan). […]
After treatments, the cells were collected and washed twice in cold KRH buffer (containing 50 mM HEPES, 137 mM NaCl, 4.8 mM KCl, 1.85 mM CaCl2, 1.3 mM MgSO4), and then lysed in ice-cold RIPA buffer (containing 50 mM Tris-HCl, pH 8.0, 150 mM NaCl, 5 mM NaF, 1% NP40, 1 mM sodium orthovanadate, 0.5% sodium deoxycholate, 0.1% sodium dodecyl sulphate (SDS), protease inhibitors, and phosphatase inhibitors (DE-68305, Roche, Mannheim, Germany)) and incubated at 4° C. for 60 min. After centrifugation of the cells at 12,000×g at 4° C. for 30 min, the supernatant was kept and quantified by Bradford protein assay (Bio-Rad, Hercules, Calif., USA). […]

GLUT4 translocation = assay: Measurement of GLUT4 translocation in differentiated C2C12 cells; assay type: cell-based, mouse; conditions: FIG. 5(A)
Experimental: Mouse muscle myoblast cells (C2C12) were obtained from the Food Industry Research and Development Institute (FIRDI, Hsinchu, Taiwan). The cells were grown and maintained in Dulbecco's Modified Eagle's Medium containing high level of glucose (DMEM-high glucose; GIBCO, Carlsbad, Calif., USA) supplemented with 10% fetal bovine serum (FBS, GIBCO) and 1% penicillin streptomycin (GIBCO) in a cell culture incubator with 5% CO2 at 37° C. Prior to experiment, the cells were seeded and cultured at a density of 8×10^3 cells per well in 96-well plates or 2.5×10^5 cells per well in 6-well plates. After the myoblasts achieved 80% confluence, the cells were incubated for 4 days in DMEM—high glucose supplemented with 1% FBS and 1% horse serum induced differentiation to myotubes.
C2C12 was fully differentiated with DMEM supplemented with 1% FBS and 1% horse serum for 4 days. The cells were washed twice with PBS containing 0.1% BSA and subsequently incubated in PBS with or without the treatment with 185 μM insulin (Ins), 16 mM metformin (Met), or 50, 100, and 150 μM of antroquinonol (Ant) for 55 min (n=5 in each group) respectively, and then placed on ice and immediately fixed with 1% glutaraldehyde in PBS at RT for 10 min. […] HRP activity was determined by measuring the absorbance at 450 nm with a spectrophotometer (EnSpire 2300 Multilabel Reader, Perkin Elmer, Waltham, Mass., USA). […]

DIO ICR mice [5] = assay: Short term glucose tolerance (OGTT) in diet-induced obesity (DIO) ICR mice; assay type: in vivo, mouse; conditions: antroquinonol 25 mg/kg Bwt versus Sitagliptin 20 mg/kg Bwt, 15 min before D-glucose 2 g/kg, FIG. 8
Experimental: as §1, §2, §3

PKA protein level = assay: Glucagon like peptide-1 induced PKA protein level, Western blot in AR42J cells; assay type: cell-based, rat; conditions: 5 μM and 20 μM, with 1 nM GLP-1 or 1 nM exendin-4, 48 h, FIG. 4
Experimental: Rat pancreas tumor cells (AR42J) were obtained from the Food Industry Research and Development Institute (FIRDI, Hsinchu, Taiwan). The cells were grown and maintained in DMEM (GIBCO) supplemented with 20% fetal bovine serum (FBS, GIBCO) and 1% penicillin streptomycin (GIBCO) and 2 mM of L-glutamin in a cell culture incubator with 5% CO2 at 37° C. Prior to the experiments, the cells were seeded and cultured for 16-24 h.
as §5

T1 sequence (P27487 whole entry): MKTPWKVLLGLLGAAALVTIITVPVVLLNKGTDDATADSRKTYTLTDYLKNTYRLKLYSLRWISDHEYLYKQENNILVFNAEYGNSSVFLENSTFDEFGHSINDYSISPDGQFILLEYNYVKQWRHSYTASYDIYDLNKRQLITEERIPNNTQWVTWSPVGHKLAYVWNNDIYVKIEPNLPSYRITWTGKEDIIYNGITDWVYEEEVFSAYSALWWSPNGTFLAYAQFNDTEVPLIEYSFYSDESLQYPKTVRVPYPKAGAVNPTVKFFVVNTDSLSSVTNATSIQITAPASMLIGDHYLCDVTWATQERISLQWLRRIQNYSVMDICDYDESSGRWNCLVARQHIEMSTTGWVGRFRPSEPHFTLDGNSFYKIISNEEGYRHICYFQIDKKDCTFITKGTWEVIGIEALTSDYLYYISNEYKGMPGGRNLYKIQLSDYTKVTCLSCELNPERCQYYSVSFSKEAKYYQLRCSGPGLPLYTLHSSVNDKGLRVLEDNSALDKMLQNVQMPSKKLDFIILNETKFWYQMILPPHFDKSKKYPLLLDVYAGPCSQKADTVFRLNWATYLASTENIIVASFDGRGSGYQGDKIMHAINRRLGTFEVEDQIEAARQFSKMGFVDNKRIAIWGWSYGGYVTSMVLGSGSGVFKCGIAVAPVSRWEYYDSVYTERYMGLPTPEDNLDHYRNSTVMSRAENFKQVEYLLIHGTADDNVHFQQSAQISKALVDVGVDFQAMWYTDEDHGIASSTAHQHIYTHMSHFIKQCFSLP

Compound | hypoglycemic efficacy, OGTT blood glucose AUC (C57 BL/6 mice) | AKT Thr308 phosphorylation [3] | AMPK Thr172 phosphorylation [4] | also measured
COC1=C(OC)[C@@H](O)[C@@H](C/C=C(\C)CC/C=C(\C)CCC=C(C)C)[C@H](C)C1=O [(−)-antroquinonol] | had the hypoglycemic efficacy |  |  | 
COC1=C(OC)[C@H](O)[C@H](C/C=C(\C)CC/C=C(\C)CCC=C(C)C)[C@@H](C)C1=O [antroquinonol] |  | not | significantly better efficacy on the phosphorylation of AMPK Thr172 than insulin and metformin | glucose tolerance, OGTT blood glucose AUC, long term (DIO ICR mice [1]): effects similar to Sitagliptin; inhibitory rate of DPP4 activity (compared to the control without treatment) [2]: up to 50%; GLUT4 translocation, comparison with metformin (GLUT4 translocation; C2C12, 100 μM of antroquinonol): equivalent to 16 mM metformin; GLUT4 translocation (GLUT4 translocation; C2C12, antroquinonol 50, 100, 150 μM versus insulin 185 μM and metformin 16 mM, 55 min): good effect on GLUT4 translocation similar to insulin (Ins), and which is even better than metformin (Met); also recorded: enhanced GLUT4 translocation with dose-dependent manner; hypoglycemic efficacy, OGTT blood glucose AUC (ratio to the control) (C57 BL/6 mice; S961-treated mice, antroquinonol 50 mg/kg Bwt p.o., metformin 100 mg/kg as positive control, FIG. 7(A)): had the hypoglycemic efficacy in the condition of insulin resistance through the oral glucose tolerance test (OGTT), similar to Metformin; glucose tolerance, OGTT blood glucose AUC, short term (DIO ICR mice [5]): effects similar to Sitagliptin; PKA protein level (PKA protein level): PKA protein level was expressed
CN(C)C(=N)N=C(N)N [metformin, reference compound] |  | not | provided an effect in action to the phosphorylation of AMPK Thr172 | 
(+)-antroquinonol | had the hypoglycemic efficacy |  |  | 
insulin |  | induced insulin signaling pathway at the phosphorylation of AKT Thr308 |  | 
